According to paper PMC10235067, “Increased renal elimination of endogenous and synthetic pyrimidine nucleosides in concentrative nucleoside transporter 1 deficient mice” (Nature Communications, 2023):
Values joined by “and” are separate entries in the source; they are usually repeats but may differ in a detail not shown here. Identical values can stand only once.

Experiments:
[1] = cited from earlier work
[2] = Gemcitabine urine pharmacokinetics (renal excretion) in Slc28a1+/+ and Slc28a1-/- mice; conditions: Figure 5 G, H, I, individual mice; for concentration at 5 min / concentration at 10 min / concentration at 15 min / concentration at 30 min / concentration at 60 min / concentration at 120 min / concentration at 240 min: mouse, urine, intravenous, 50 mg/kg, Cp (dFdU)
Description: THU was added to the mouse urine samples upon collection and frozen until analysis. […] Five microliters of the diluted samples were transferred to a 96-well autosampler plate then 10 µL of internal standard mixture was added and mixed. […] The plate was then transferred to the 4 °C autosampler for analysis.
The chromatographic separation was performed on a Thermo Accucore aQ 2.6 µm, 100 ×2.1 mm column at 30 °C using a gradient with a 10 µL injection volume. The mobiles phases were 1 mM ammonium acetate in deionized water pH 6.8 and acetonitrile. The total run time was 5.5 min. […] The LC–MS/MS analysis was conducted on a Thermo Vanquish UHPLC with a TSQ Quantiva mass spectrometer equipped with an electrospray ionization source.

[3] = Gemcitabine plasma pharmacokinetics in Slc28a1+/+ and Slc28a1-/- mice
Description: To collect blood, a 5 mm lancet was used to apply pressure to the submandibular vein and release blood flow. For retro-orbital collection, mice were anesthetized with 3% isoflurane in oxygen, and the blood was collected directly into heparinized capillary tubes by applying slight pressure to the medial canthus of the eye. Cardiac puncture was performed as the final collection method by first euthanizing the mice in a CO2 chamber and immediately performing posterior cardiac puncture by inserting a 27 G needle with a 1 ml syringe attachment into the heart. Once blood collection was completed, gentle pressure was applied to the blood collection area using gauze to stop the bleeding. Thirty microliters of blood was collected into heparinized capillary tubes at each time point, transferred into prelabeled 0.5 ml microcentrifuge tubes containing THU (10 µg/ml; final concentration), and immediately processed and snap-frozen following procedures outlined in the “Gemcitabine plasma pharmacokinetics” methods section.
Gemcitabine and dFdU plasma concentrations were measured using a modified version of our previously published UHPLC–MS/MS method for nucleosides[74] […] Noncompartmental pharmacokinetic parameters (Cmax, Tmax, AUC, CL, T1/2, etc.) were calculated using WinNonlin 6.2 software (Pharsight; Mountain View, CA). […] The Cmax and Tmax were obtained from the concentration-time curve. The AUC was calculated according to the linear trapezoidal rule up to the last time point with a measurable concentration of the analyte of interest. Significant differences between Slc28a1^+/+ and Slc28a1^−/− mouse pharmacokinetic parameters (p < 0.05) were evaluated with an unpaired two-sided Student’s t-test.
The resulting supernatant was evaporated to dryness in a SpeedVac, and the remaining residue was reconstituted in mobile phase A for subsequent analysis. […] Subsequent processing was identical to that for the plasma and urine samples.
Briefly, the analysis was performed on an Imtakt Schzero SM C18 column, 2.1 × 100 mm, 3.0 µm particle size. The eluents used consisted of mobile phase A consisting of 50 mM ammonium formate:50 mM ammonium hydroxide (9:1, v/v) (pH = 8.6) and mobile phase B consisting of 50 mM ammonium formate:50 mM ammonium hydroxide (9:1, v/v):ACN (80:20, v/v) (pH = 8.6). […] The injection volume was 10 μL, and the autosampler temperature was set at 4 °C throughout the analysis.
The Waters Triple Quadrupole Mass Spectrometer with an ESI source was operated in negative and positive ion mode at a spray voltage of 2.5 kV, capillary temperature of 150 °C, and vaporizer temperature of 250 °C. Compound optimization was performed manually using the MassLynx 4.1 Software AutoTune Wizard (Waters, Milford, MA) by infusion into the mass spectrometer using a T-connector. […] Analyze concentrations were determined and analyzed using MassLynx Mass Spectrometry Software (Waters; Milford, MA).

[4] = dFdU in plasma, KO mice, iv gemcitabine 50mg/kg, per mouse

Structure (SMILES): O=c1ccn([C@@H]2O[C@H](CO)[C@@H](O)C2(F)F)c(=O)[nH]1 [dFdU, 2′,2′-difluorodeoxyuridine]
- half-life [1]: ~ 26 h
- Cp (dFdU) ([2]; KO mice, 5 Minutes): 317.288 ng/mL and 341.288 ng/mL and 338.288 ng/mL and 263.288 ng/mL
- Cp (dFdU) ([2]; KO mice, 10 Minutes): 227.479 ng/mL and 269.479 ng/mL and 242.479 ng/mL and 273.479 ng/mL and 275.479 ng/mL
- Cp (dFdU) ([2]; KO mice, 15 Minutes): 331.541 ng/mL and 373.541 ng/mL and 346.541 ng/mL and 377.541 ng/mL and 379.541 ng/mL
- Cp (dFdU) ([2]; KO mice, 30 Minutes): 322.048 ng/mL and 364.048 ng/mL and 337.048 ng/mL and 368.048 ng/mL and 370.048 ng/mL
- Cp (dFdU) ([2]; KO mice, 60 Minutes): 338.37 ng/mL and 380.37 ng/mL and 353.37 ng/mL and 384.37 ng/mL and 386.37 ng/mL
- Cp (dFdU) ([2]; KO mice, 120 Minutes): 342.398 ng/mL and 384.398 ng/mL and 357.398 ng/mL and 388.398 ng/mL and 390.398 ng/mL
- Cp (dFdU) ([2]; KO mice, 240 Minutes): 359.089 ng/mL and 401.089 ng/mL and 374.089 ng/mL and 405.089 ng/mL and 407.089 ng/mL
- Cp (dFdU) ([2]; WT mice, 5 Minutes): 390.036 ng/mL and 363.036 ng/mL and 387.036 ng/mL and 384.036 ng/mL and 309.036 ng/mL
- Cp (dFdU) ([2]; WT mice, 10 Minutes): 317.618 ng/mL and 359.618 ng/mL and 332.618 ng/mL and 363.618 ng/mL and 365.618 ng/mL
- Cp (dFdU) ([2]; WT mice, 15 Minutes): 319.343 ng/mL and 361.343 ng/mL and 334.343 ng/mL and 365.343 ng/mL and 367.343 ng/mL
- Cp (dFdU) ([2]; WT mice, 30 Minutes): 316.265 ng/mL and 358.265 ng/mL and 331.265 ng/mL and 362.265 ng/mL and 364.265 ng/mL
- Cp (dFdU) ([2]; WT mice, 60 Minutes): 316.849 ng/mL and 358.849 ng/mL and 331.849 ng/mL and 362.849 ng/mL and 364.849 ng/mL
- Cp (dFdU) ([2]; WT mice, 120 Minutes): 320.376 ng/mL and 362.376 ng/mL and 335.376 ng/mL and 366.376 ng/mL and 368.376 ng/mL
- Cp (dFdU) ([2]; WT mice, 240 Minutes): 471.043 ng/mL and 459.043 ng/mL and 432.043 ng/mL and 463.043 ng/mL and 465.043 ng/mL
- concentration at 5 min ([2]; KO mice, 5 Minutes): 344 ng/mL
- concentration at 10 min ([2]; KO mice, 10 Minutes): 239 ng/mL
- concentration at 15 min ([2]; KO mice, 15 Minutes): 344 ng/mL
- concentration at 30 min ([2]; KO mice, 30 Minutes): 334 ng/mL
- concentration at 60 min ([2]; KO mice, 60 Minutes): 350 ng/mL
- concentration at 120 min ([2]; KO mice, 120 Minutes): 354 ng/mL
- concentration at 240 min ([2]; KO mice, 240 Minutes): 371 ng/mL
- concentration at 5 min ([2]; WT mice, 5 Minutes): 328 ng/mL
- concentration at 10 min ([2]; WT mice, 10 Minutes): 330 ng/mL
- concentration at 15 min ([2]; WT mice, 15 Minutes): 331 ng/mL
- concentration at 30 min ([2]; WT mice, 30 Minutes): 328 ng/mL
- concentration at 60 min ([2]; WT mice, 60 Minutes): 329 ng/mL
- concentration at 120 min ([2]; WT mice, 120 Minutes): 332 ng/mL
- concentration at 240 min ([2]; WT mice, 240 Minutes): 429 ng/mL
- AUC (Last) ([3]; Slc28a1-/- mice, plasma, single i.v. dFdC 50 mg/kg): 1453.8 ± 31.9 ng x min/mL
- AUCINF_D_obs [3, 4]: 145.293 kg·ng·min/mL/mg and 247.451 kg·ng·min/mL/mg and 151.268 kg·ng·min/mL/mg
- AUCINF_D_pred [3, 4]: 145.176 kg·ng·min/mL/mg and 248.596 kg·ng·min/mL/mg and 151.889 kg·ng·min/mL/mg
- AUCINF_obs [3, 4]: 12372.5 ng·min/mL and 7563.4 ng·min/mL
- AUCINF_pred [3, 4]: 12429.8 ng·min/mL and 7594.45 ng·min/mL
- AUC_%Back_Ext_obs [3, 4]: 27.8053% and 16.048% and 18.9747%
- AUC_%Back_Ext_pred [3, 4]: 27.8277% and 15.9741% and 18.8972%
- AUC_%Extrap_obs [3, 4]: 3.511% and 11.2661% and 5.257%
- AUC_%Extrap_pred [3, 4]: 3.433% and 11.6749% and 5.644%
- AUCall [3, 4]: 7482.64 ng·min/mL and 12659.7 ng·min/mL and 8852.13 ng·min/mL and 5047.42 ng·min/mL and 7806.56 ng·min/mL and 6947.11 ng·min/mL
- AUClast [3, 4]: 7009.6 ng·min/mL and 10978.6 ng·min/mL and 5995.89 ng·min/mL and 3337.67 ng·min/mL and 7165.79 ng·min/mL and 6415.86 ng·min/mL
- AUClast_D [3, 4]: 140.192 kg·ng·min/mL/mg and 219.572 kg·ng·min/mL/mg and 119.918 kg·ng·min/mL/mg and 66.7534 kg·ng·min/mL/mg and 143.316 kg·ng·min/mL/mg and 128.317 kg·ng·min/mL/mg
- AUMCINF_obs [3, 4]: 73315.1 min*min*ng/mL and 188787 min*min*ng/mL and 94928.9 min*min*ng/mL
- AUMCINF_pred [3, 4]: 73092.7 min*min*ng/mL and 191216 min*min*ng/mL and 96149.2 min*min*ng/mL
- AUMC_%Extrap_obs [3, 4]: 13.2491% and 31.3337% and 16.4642%
- AUMC_%Extrap_pred [3, 4]: 12.9851% and 32.2062% and 17.5245%
- AUMClast [3, 4]: 63601.5 min*min*ng/mL and 129633 min*min*ng/mL and 47032.5 min*min*ng/mL and 25446 min*min*ng/mL and 79299.6 min*min*ng/mL and 72737 min*min*ng/mL
- Cl_pred [3, 4]: 413.291 L/h/kg and 241.36 L/h/kg and 395.026 L/h/kg
- Clast [3, 4]: 31.5362 ng/mL and 112.074 ng/mL and 380.831 ng/mL and 227.966 ng/mL and 42.718 ng/mL and 35.4167 ng/mL
- Clast_pred [3, 4]: 30.8142 ng/mL and 116.678 ng/mL and 46.0533 ng/mL
- Cmax [3, 4]: 399.844 ng/mL and 516.311 ng/mL and 478.159 ng/mL and 230.143 ng/mL and 315.127 ng/mL and 303.44 ng/mL
- Cmax_D [3, 4]: 7.997 kg·ng/mL/mg and 10.3262 kg·ng/mL/mg and 9.563 kg·ng/mL/mg and 4.603 kg·ng/mL/mg and 6.303 kg·ng/mL/mg and 6.069 kg·ng/mL/mg
- HL_Lambda_z [3, 4]: 5.606 min and 8.621 min and 6.452 min
- Lambda_z [3, 4]: 0.0804 min⁻¹ and 0.1074 min⁻¹
- MRTINF_obs [3, 4]: 15.2585 min and 12.5511 min
- MRTINF_pred [3, 4]: 15.3837 min and 12.6605 min
- MRTlast [3, 4]: 11.8078 min and 7.844 min and 7.624 min and 11.0664 min and 11.3371 min
- Tlast [3, 4]: 30 min and 15 min
